Results: paper PMC4052546 (Pharmaceuticals, 2011)
Read-outs that look alike come from different tables or passages of the source.

Key:
[1] = Pharmacokinetics of AS and DHA in rat plasma after single and multiple intravenous AS injections (automated blood sampler, LC-MS/MS); format: in vivo, Sprague-Dawley rats; conditions: for Cmax / MRT / Tmax / clearance / AUC(0-t) / AUC / half-life / average plasma concentration over 0–72 h (Cav = AUC0–72 h/72): male, Sprague-Dawley, rat, plasma, iv; for AUC(0-t): read-out: AUC0–3 h; for AUC: read-out: AUCinfininty;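 for all read-outs here: blood drawn through a jugular vein catheter by an automated sampling system, plasma drug levels measured by LC-MS/MS with positive electrospray ionization against standard curves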
Protocol: The Culex ABS is a blood sampling and metabolism monitoring machine, which is controlled by its own internal computer. We were successful in evaluating PK for long-term periods by using this system. After jugular vein cannulation, study animals were individually placed in the system, which allowed for a micro-pump to infuse heparinized-saline (10 unit heparin/mL saline) at a rate of 1-2 μL/min to prevent coagulation within the catheter. Culex samples were obtained with precise blood volumes from the study animals and the total volume taken was less than 6% per day and 14% during the entire study period. Blood samples were maintained at 3 °C using Culex's temperature-controlled fractional collector. Plasma was separated from the blood samples and processed for drug extraction.
(§1) Three samples were collected during each phase of absorption, distribution, or elimination for full PK analysis on the first and last dosing days following intravenous bonus injection. Additionally, trough levels (pre-dose) samples were collected in between each dose to follow drug accumulation and a series PK approach (18 samples per animal) was used. Thus, each animal was dosed and plasma samples were obtained for up to three days. A total of 18 (0, 5, 15, 30, 45 min, 1, 2, 3, 6, 24.25, 48.167, 48.25, 48.5, 48.75, 49, 50, 51, and 54 h) samples were collected into cooled vials. 50 μL of blood per sample was collected pre-dosing and after dosing and 100 μL per sample was taken from 0.08 h to 56 h after dosing. During collection, blood samples were added into the vials, which contained dried heparin (50 units) on the bottom of each vial. Thus, a total blood volume of 1.75 mL was obtained from each rat during the three day treatment period (0.85 mL of blood on day 0, 0.1 mL on day 1, and 0.9 mL on day 2), which is 9.3% of the animals total blood volume. Subjects for replicated crossover design were followed FDA recommendation [22] with a 2 week wash out period. During wash-out period, if the catheter was blocked up by any reasons the jugular vein tubes were infused or replaced.
The samples were vortexed vigorously (set at 10 or max setting) for 8–10 sec followed by a 10,000 × g centrifugation at 4 °C for 10 min. Aliquots (approximately 250 μL ea) of the undisturbed supernatants were transferred into a 96-well plate for LC-MS/MS analyses. […] Drugs were chromatographically separated using an acetonitrile/ammonium acetate gradient through a Waters XTerra C18 column (2.1 × 50 mm, 3.5 μm particle size) and corresponding pre-column. Quantification was done using the most abundant daughter ions following positive electrospray ionization. Chromatograms were analyzed using Xcalibur mass spectrometry software. The responses-concentrations standard curves were fitted and weighted.
The area under the curve (AUC) was determined by the linear trapezoidal rule with extrapolation to infinity based on the concentration of the last time point divided by the terminal rate constant. The bioequivalence (BE) evaluation of the two formulations were analyzed by using BE software (WinNonlin 5.2, Pharsight Co. Mountain View, CA. USA) in rats for a NDA application.

[2] = tested on: malaria parasites; conditions: incubation in vitro; cited from earlier work
[3] = tested on: parasitemia; design: method as in earlier work; conditions: intravenous AS, clinical trials; cited from earlier work
[4] = rat, in vivo
Description: An automated blood sampler (Culex ABS, Bioanalytical Systems, Inc. West Lafayette, IN) was used for rat blood sample collection.
as §1
The area under the curve (AUC) was determined by the linear trapezoidal rule with extrapolation to infinity based on the concentration of the last time point divided by the terminal rate constant.

[5] = Hematology and recovery study after multiple intravenous AS; format: in vivo, rats
Protocol: At 24 and 96 h after the final dose of Chinese and WRAIR intravenous AS, male and female animals were anesthetized by isoflurane inhalation anesthesia (Abbott Labs, North Chicago, IL, USA) delivered by a small-animal anesthesia system (Euthanex Corp, Palmer Park, PA, USA). Each animal was initially placed in a chamber primed with 5% isoflurane, and upon induction, maintained in a non-rebreathing mask at 2% isoflurane delivered with […]. […] One mL of the blood sample was placed in K3 EDTA tubes (Beckton Dickinson, Franklin Lakes, NJ, USA) for CBC analysis using the ABX Pentra 60 hematology analyzer (ABX diagnostics, Irvine, CA, USA). Another 0.7 mL of blood was placed in serum separator tubes (Becton Dickinson, Franklin Lakes, NJ, USA) for biochemistry analysis using commercial assay kits on the Vitros 250 Chemistry analyzer (Johnson & Johnson, Rochester, NY, USA). Reticulocyte analysis was performed utilizing light microscopy. After sample collection, rats were euthanized by cervical dislocation.

[6] = cited from earlier work
[7] = Chinese formulation (AS/NaHCO3), 20 mg/kg i.v. daily for 3 days, male rats, Period 1, Day 3
[8] = Chinese formulation (AS/NaHCO3), 20 mg/kg i.v. daily for 3 days, male rats, Period 2, Day 3
[9] = WRAIR formulation (AS/0.3M PBS Buffer), 20 mg/kg i.v. daily for 3 days, male rats, Period 2, Day 3
[10] = 20 mg/kg, Chinese formulation (AS/NaHCO3), 20 mg/kg i.v. daily for 3 days, male rats, Period 1, Day 1
[11] = 20 mg/kg, Chinese formulation (AS/NaHCO3), 20 mg/kg i.v. daily for 3 days, male rats, Period 1, Day 3
[12] = 20 mg/kg, Chinese formulation (AS/NaHCO3), 20 mg/kg i.v. daily for 3 days, male rats, Period 2, Day 1
[13] = 20 mg/kg, Chinese formulation (AS/NaHCO3), 20 mg/kg i.v. daily for 3 days, male rats, Period 2, Day 3
[14] = 20 mg/kg, WRAIR formulation (AS/0.3M PBS Buffer), 20 mg/kg i.v. daily for 3 days, male rats, Period 1, Day 1
[15] = 20 mg/kg, WRAIR formulation (AS/0.3M PBS Buffer), 20 mg/kg i.v. daily for 3 days, male rats, Period 1, Day 3
[16] = 20 mg/kg, WRAIR formulation (AS/0.3M PBS Buffer), 20 mg/kg i.v. daily for 3 days, male rats, Period 2, Day 1
[17] = 20 mg/kg, WRAIR formulation (AS/0.3M PBS Buffer), 20 mg/kg i.v. daily for 3 days, male rats, Period 2, Day 3
[18] = male, Sprague-Dawley, iv, 20 mg/kg, 1 day

C[C@H]1[C@H](OC(=O)CCC(=O)O)O[C@@H]2O[C@@]3(C)CC[C@H]4[C@H](C)CC[C@@H]1[C@@]24OO3 [AS, artesunate]
AUC0–3 h ([1]; Chinese formulation (AS/NaHCO3), 20 mg/kg i.v. daily for 3 days, male rats, Period 1, Day 1): 867.5 ± 136.7 ng·h/mL | AUC0–3 h [1, 7]: 614.2 ± 191.8 ng·h/mL | Cmin [1, 7]: 4.35 ± 2.54 ng/mL | AUC0–3 h ([1]; Chinese formulation (AS/NaHCO3), 20 mg/kg i.v. daily for 3 days, male rats, Period 2, Day 1): 932.6 ± 144.2 ng·h/mL | AUC0–3 h [1, 8]: 665.4 ± 236.3 ng·h/mL | Cmin [1, 8]: 3.35 ± 2.11 ng/mL | Degree of Fluctuation = 100% × (Cmax − Cmin)/Cav [1, 8]: 1192 ± 219% | time at which Cmax was measured ([1]; Chinese formulation, 20 mg/kg i.v., rats, period 1, day 1): 5 min | time at which Cmax was measured ([1]; Chinese formulation, 20 mg/kg i.v., rats, period 2, day 1): 5 min | time at which Cmax was observed ([1]; Chinese formulation, 20 mg/kg i.v., rats, period 2, day 3): 5 min | AUC0–3 h ([1]; WRAIR formulation (AS/0.3M PBS Buffer), 20 mg/kg i.v. daily for 3 days, male rats, Period 1, Day 1, 20 mg/kg): 879.4 ± 167.4 ng·h/mL | Cmin ([1]; WRAIR formulation (AS/0.3M PBS Buffer), 20 mg/kg i.v. daily for 3 days, male rats, Period 1, Day 3): 3.56 ± 0.85 ng/mL | AUC0–3 h ([1]; WRAIR formulation (AS/0.3M PBS Buffer), 20 mg/kg i.v. daily for 3 days, male rats, Period 1, Day 3, 20 mg/kg): 611.1 ± 162.1 ng·h/mL | Cmin [1, 9]: 3.87 ± 1.57 ng/mL | Degree of Fluctuation = 100% X (Cmax − Cmin)/Cav [1, 9]: 1218 ± 172% | AUC0–3 h ([1]; WRAIR formulation (AS/0.3M PBS Buffer), 20 mg/kg i.v. daily for 3 days, male rats, Period 2, Day 3, 20 mg/kg): 669.7 ± 159.3 ng·h/mL | time at which Cmax was measured ([1]; WRAIR formulation, 20 mg/kg i.v., rats, period 1, day 1): 5 min | AS concentration on day 3 compared to day 1 ([1]; i.v. treatments in rats): one-third lower | Cmax [1, 10]: 4300 ng/mL | MRT [1, 10]: 15.6 ± 2.4 min | Tmax [1, 10]: 4.98 min | clearance [1, 10]: 380 ± 54.2 mL/min/kg | AUC(0-t) [1, 10]: 868 ng·h/mL | AUC [1, 10]: 872 ± 138 ng·h/mL | half-life ([1]; 20 mg/kg, Chinese formulation (AS/NaHCO3), 20 mg/kg i.v. daily for 3 days, male rats, Period 1, Day 1, read-out: t1/2 distribution (converted)): 3.6 ± 0.6 min | half-life ([1]; 20 mg/kg, Chinese formulation (AS/NaHCO3), 20 mg/kg i.v. daily for 3 days, male rats, Period 1, Day 1, read-out: t1/2 elimination (converted)): 24 ± 4.2 min | Cmax [1, 11]: 2460 ng/mL | MRT [1, 11]: 17.4 ± 6 min | Tmax [1, 11]: 4.98 min | average plasma concentration over 0–72 h (Cav = AUC0–72 h/72) [1, 11]: 204 ng·h/mL | clearance [1, 11]: 570 ± 170 mL/min/kg | AUC(0-t) [1, 11]: 614 ng·h/mL | AUC [1, 11]: 617 ± 193 ng·h/mL | half-life ([1]; 20 mg/kg, Chinese formulation (AS/NaHCO3), 20 mg/kg i.v. daily for 3 days, male rats, Period 1, Day 3, read-out: t1/2 distribution (converted)): 6 ± 1.8 min | half-life ([1]; 20 mg/kg, Chinese formulation (AS/NaHCO3), 20 mg/kg i.v. daily for 3 days, male rats, Period 1, Day 3, read-out: t1/2 elimination (converted)): 24.6 ± 6.6 min | Cmax [1, 12]: 4140 ng/mL | MRT [1, 12]: 15.6 ± 3 min | Tmax [1, 12]: 4.98 min | clearance [1, 12]: 360 ± 56.2 mL/min/kg | AUC(0-t) [1, 12]: 932 ng·h/mL | AUC [1, 12]: 935 ± 144 ng·h/mL | half-life ([1]; 20 mg/kg, Chinese formulation (AS/NaHCO3), 20 mg/kg i.v. daily for 3 days, male rats, Period 2, Day 1, read-out: t1/2 distribution (converted)): 4.8 ± 1.8 min | half-life ([1]; 20 mg/kg, Chinese formulation (AS/NaHCO3), 20 mg/kg i.v. daily for 3 days, male rats, Period 2, Day 1, read-out: t1/2 elimination (converted)): 25.8 ± 4.2 min | Cmax [1, 13]: 2540 ng/mL | MRT [1, 13]: 15.6 ± 5.4 min | Tmax [1, 13]: 4.98 min | clearance [1, 13]: 562 ± 240 mL/min/kg | AUC(0-t) [1, 13]: 665 ng·h/mL | AUC [1, 13]: 667 ± 238 ng·h/mL | half-life ([1]; 20 mg/kg, Chinese formulation (AS/NaHCO3), 20 mg/kg i.v. daily for 3 days, male rats, Period 2, Day 3, read-out: t1/2 distribution (converted)): 7.2 ± 1.8 min | half-life ([1]; 20 mg/kg, Chinese formulation (AS/NaHCO3), 20 mg/kg i.v. daily for 3 days, male rats, Period 2, Day 3, read-out: t1/2 elimination (converted)): 23.4 ± 7.8 min | Cmax [1, 14]: 4030 ng/mL | MRT [1, 14]: 18 ± 3.6 min | Tmax [1, 14]: 4.98 min | clearance [1, 14]: 378 ± 67.2 mL/min/kg | AUC(0-t) [1, 14]: 879 ng·h/mL | AUC [1, 14]: 882 ± 167 ng·h/mL | half-life ([1]; 20 mg/kg, WRAIR formulation (AS/0.3M PBS Buffer), 20 mg/kg i.v. daily for 3 days, male rats, Period 1, Day 1, read-out: t1/2 distribution (converted)): 4.8 ± 1.2 min | half-life ([1]; 20 mg/kg, WRAIR formulation (AS/0.3M PBS Buffer), 20 mg/kg i.v. daily for 3 days, male rats, Period 1, Day 1, read-out: t1/2 elimination (converted)): 24.6 ± 1.8 min | Cmax [1, 15]: 2430 ng/mL | MRT [1, 15]: 16.2 ± 5.4 min | Tmax [1, 15]: 4.98 min | average plasma concentration over 0–72 h (Cav = AUC0–72 h/72) [1, 15]: 204 ng·h/mL | clearance [1, 15]: 559 ± 118 mL/min/kg | AUC(0-t) [1, 15]: 611 ng·h/mL | AUC [1, 15]: 613 ± 163 ng·h/mL | half-life ([1]; 20 mg/kg, WRAIR formulation (AS/0.3M PBS Buffer), 20 mg/kg i.v. daily for 3 days, male rats, Period 1, Day 3, read-out: t1/2 distribution (converted)): 6 ± 2.4 min | half-life ([1]; 20 mg/kg, WRAIR formulation (AS/0.3M PBS Buffer), 20 mg/kg i.v. daily for 3 days, male rats, Period 1, Day 3, read-out: t1/2 elimination (converted)): 28.2 ± 6 min | Cmax [1, 16]: 4210 ng/mL | MRT [1, 16]: 16.8 ± 2.4 min | Tmax [1, 16]: 4.98 min | clearance [1, 16]: 387 ± 52.1 mL/min/kg | half-life ([1]; 20 mg/kg, WRAIR formulation (AS/0.3M PBS Buffer), 20 mg/kg i.v. daily for 3 days, male rats, Period 2, Day 1, read-out: t1/2 distribution (converted)): 4.8 ± 0.6 min | half-life ([1]; 20 mg/kg, WRAIR formulation (AS/0.3M PBS Buffer), 20 mg/kg i.v. daily for 3 days, male rats, Period 2, Day 1, read-out: t1/2 elimination (converted)): 26.4 ± 3.6 min | Cmax [1, 17]: 2710 ng/mL | MRT [1, 17]: 16.2 ± 3.6 min | Tmax [1, 17]: 4.98 min | clearance [1, 17]: 517 ± 162 mL/min/kg | AUC(0-t) [1, 17]: 670 ng·h/mL | AUC [1, 17]: 673 ± 160 ng·h/mL | half-life ([1]; 20 mg/kg, WRAIR formulation (AS/0.3M PBS Buffer), 20 mg/kg i.v. daily for 3 days, male rats, Period 2, Day 3, read-out: t1/2 distribution (converted)): 8.4 ± 1.2 min | half-life ([1]; 20 mg/kg, WRAIR formulation (AS/0.3M PBS Buffer), 20 mg/kg i.v. daily for 3 days, male rats, Period 2, Day 3, read-out: t1/2 elimination (converted)): 32.4 ± 11.4 min | time to completely inhibit parasite growth [2]: 2 to 4 h | time for parasitemia to fall by half [3]: 3.18 h | 90% CI for T/R, Lower, AUCD1 [4, 18]: 88.72% | 90% CI for T/R, Upper, AUCD1 [4, 18]: 111.28% | BE (bioequivalence), AUCD1 [4]: Yes | BE (bioequivalence), Cmax D1 [4]: Yes | 90% CI between the two intravenous formulations, AUC0–3 h ([4]; iv): 88.72–111.28% | 90% CI for the difference between the two i.v. formulations, AUC1–3D ([4]; iv): 87.65–112.35% | 90% CI of the difference between the two intravenous formulations, AUCD3 ([4]; iv): 82.30–117.69% | total reticulocyte counts ([5]; 20 mg/kg AS intravenously, male and female rats, both formulations): significant reductions | all hematological parameters after recovery period ([5]; 20 mg/kg AS, 3 days post last dosing): reverted to normal | elimination half-life (t1/2) [6]: 2 to 18 min | Cmax and AUC values on the last dose day compared to the first day ([6]; multiple oral treatments in malaria patients and healthy subjects): reduced by one-third to one-seventh
